The source of these data is patent US20240342273A1, “IMMUNOTHERAPEUTIC METHOD FOR INCREASING CASHEW TOLERANCE IN A SUBJECT” (DBV Technologies, priority 2021, published 2024).

The subject of assay [1] is re-stimulated splenocytes. Put plainly: In vitro culture of spleen cells with or without cashew stimulation (proliferation, cytokine production). Format: cell-based, mice. As to conditions: splenocytes after 8 weeks of EPIT. The protocol:
(§1) Sensitized mice were then treated by epicutaneous immunotherapy using Viaskin patches: • 10 mice were treated with viaskin containing excipient (Phosphate buffer 0.1 M+DMSO) • 10 mice were treated with viaskin containing 50 μg cashew protein (Stallergenes Greer, ref XPF84D3A2.5), • 10 mice were treated with viaskin containing 50 μg cashew protein+50 μg T1 • 10 mice were treated with viaskin containing 50 μg cashew protein+50 μg T2 • 10 mice were treated with viaskin containing 50 μg cashew protein+50 μg T3 • 10 mice were treated with viaskin containing 50 μg cashew protein+50 μg T1+50 μg T2+50 μg T3 • 10 mice were treated with viaskin containing 50 μg T1+50 μg T2+50 μg T3 m Tregitopes T1, T2 and T3 correspond to the homologs of human Tregitopes of SEQ ID NO: 1, SEQ ID NO:2 and SEQ ID NO:3, respectively. The N-terminus of the tested peptides was acetylated (CH3(C═O)—) while the C-terminus was amidated (—NH2) to prevent degradation by protease. […]
(§2) Anaphylactic reactions were characterized by a drop in body temperature and the occurrence of clinical symptoms. […] Cashew-specific IgE, IgG1 and IgG2a were measured by in house ELISA. […]

The next assay relates to cashew-sensitized mice. Put plainly: Oral cashew challenge after 8 weeks of EPIT (anaphylaxis: body temperature, clinical symptoms, mMCP-1). As to conditions: Tregitope co-administered with cashew allergen extract by epicutaneous route, cashew-sensitized mouse model.
Another assay has as its system CD62L+/FoxP3+ Tregs. Put plainly: Phenotyping of Tregs by FACS in spleen and brachial lymph nodes. Format: in vivo, mice. Conditions: after 8 weeks of EPIT; Tregitope co-administered with cashew. The protocol:
as §1, §2

Entries after “also recorded” stand apart in the source; their conditions may differ.

Turning to “T2: mTregitope from IgG1 (CH), EEQFNSTFRSVSELPIMHQ, homolog of human Tregitope SEQ ID NO: 2 (Ac-EEQFNSTFRSVSELPIMHQ-NH2) [Tregitope T2]”, in assay [1], the “Th2 cytokines (IL-4) in re-stimulated splenocytes (FIG. 2D)” value is “down-modulation” and the “cashew specific T-cell proliferation (FIG. 2C)” value was “reduced”. Further, the “potentiation of the efficacy of EPIT for providing tolerance to cashew” value with cashew-sensitized mice is reported as “clearly potentiate; also recorded: particularly marked”. Moreover, in the assay with CD62L+/FoxP3+ Tregs, the “numbers of CD62L+/FoxP3+ Tregs in skin-draining lymph nodes (FIG. 2B)” value is “increase” and the “numbers of CD62L+/FoxP3+ Tregs in spleens (FIG. 2A)” value is “increase”.
